The text below walks through data of patent US20230192701A1, “BICYCLIC KINASE INHIBITORS AND USES THEREOF” (iOmx Therapeutics AG, priority 2020, published 2023).

One may read the half-life as the time needed for the level to fall by half in the phase considered. The low end stands for fast loss, the high end for slow loss. As a reminder, the IC50 is the concentration that gives 50% inhibition. A higher IC50 goes with weaker potency.

Series [1] is described as follows: Mouse hepatocyte stability. The series is classed as in vitro ADME. The note with it: mouse hepatocytes, 37°C. Here is the method:
(§1) Determination of human and mice hepatocyte stability was conducted as follows. 200 uL of the respective hepatocyte cell suspension (2×10e6/ml) was preincubated at 37° C. for 10 min. Then, 200 uL of a 2 uM working stock of the test compound was added to the hepatocyte cell suspension, and the mixture was further incubated at 37° C. and 500 rpm. The reaction was stopped at 30, 60 and 120 min by precipitating 50 uL of the incubation mixture with 200 uL of acetonitrile. Samples were vortexed for 5 min at 1200 rpm and centrifuged at 4000 rpm for 10 min. Intrinsic clearance and half-life were analysed using LC-MS/MS.
(§2) LC-MS/MS was performed for all assays using a C18 column (50*4.6 mm, 5 um) for the CaCo2 assay, or a C18 column (50*4.6 mm, 4 um) for the other assays. The mobile phases used were 10 mM Ammonium Acetate with 0.1% Formic acid (aqueous) and 100% Acetonitrile (organic).

Series [2] in a line: Human plasma-protein binding (RED method). It counts as in vitro ADME. Here is the method:
Human and mice protein plasma binding was determined using the Plasma Protein Binding by RED Method. Briefly, 200 uL of the respective plasma containing the test compound (10 uM) was spiked into the donor well (RED Chamber) of the insert. 350 uL of PBS was spiked into receiver well (white chamber). The plate was incubated at 37° C. in a thermomixer at 400 rpm for 5 hours. The samples were matrix equilibrated with opposite matrix (25 uL blank buffet/Plasma). Matrix matched samples were precipitated with 200 uL of Acetonitrile containing Internal standard. Samples were vortexed at 1000 rpm for 5 min and centrifuged at 4000 rpm for 10 min. The supernatant was diluted 2 folds with water and % bound and unbound protein and % recovery at 5 h was determined by LC-MS/MS.
as §2

Series [3] is described as follows: Human liver microsomal stability. The series is classed as in vitro ADME. As to conditions: pH 7.4; human liver microsomes, NADPH, 37°C. Here is the method: (§3) Briefly, human and liver microsomal stability was determined by pre-incubation of 2.5 uL compound and 75 uL of the respective liver microsomes in potassium phosphate buffer (pH 7.4) at 37° C. After adding of NADPH as cofactor and further incubation at 37° C. for 60 min, acetonitrile containing internal standard was added, and the sample was vortexed for 5 min at 1200 rpm and then centrifuged 10 min at 4000 rpm.
as §2
(In general: Microsomes from liver hold many membrane-bound enzymes, among them those of drug oxidation.)

The nature of series [4]: Mouse liver microsomal stability. It counts as in vitro ADME. The note with it: pH 7.4; mouse liver microsomes, NADPH, 37°C. Here is the method: as §3, §2
Series [5] is described as follows: pharmacokinetic study, plasma level after single po or iv administration. The series is classed as in vivo, male CD1 mice. The note with it: mice. Here is the method:
Screening PK properties of compounds of Formula (I) are additionally determined, including plasma and free plasma concentration, as well as Cmax. For example, the free concentration of compound after a dose of eg 30 mg/kg po (per os) administered mice can be determined for certain time points after administrations.
To further investigate PK properties of kinase inhibitors of Formula (I), the compounds are tested for in vivo drug exposure and potency in a full pharmacokinetic study with oral administration (per os, po).
The experimental procedure and the determination of the pharmacokinetic parameters are investigated after single administration of each compound per gavage in male CD1 mice (Intonation Research Laboratories (Hyderabad, India)). The compounds are diluted in 5% DMSO+5% Solutol+90% water. Plasma level (eg sampling 0.25 h; 0.5 h; 1 h; 1.5 h; 2 h; 4 h; 6 h; 12 h; 24 h after drug administration) of the compounds are analysed by LC-MS/MS and pharmacokinetic parameters are determined using non-compartmental analysis and nominal dose levels of eg 30 mg/kg po and 1 mg/kg iv. Three animals are analysed per time point and each mouse is used for three plasma samplings in total.

Series [6] is described as follows: Human hepatocyte stability. It counts as in vitro ADME. As to conditions: human hepatocytes, 37°C. Here is the method:
as §1, §2

In series [7] the target is SIK2 (Homo sapiens, UniProt Q9H0K1). Nature of the series: radiometric protein kinase assay (33PanQinase Activity Assay), SIK2. It counts as biochemical. The note with it: ATP 1.0 μM, substrate RBER-CHKtide.
SIK2, sequence (Q9H0K1 whole entry): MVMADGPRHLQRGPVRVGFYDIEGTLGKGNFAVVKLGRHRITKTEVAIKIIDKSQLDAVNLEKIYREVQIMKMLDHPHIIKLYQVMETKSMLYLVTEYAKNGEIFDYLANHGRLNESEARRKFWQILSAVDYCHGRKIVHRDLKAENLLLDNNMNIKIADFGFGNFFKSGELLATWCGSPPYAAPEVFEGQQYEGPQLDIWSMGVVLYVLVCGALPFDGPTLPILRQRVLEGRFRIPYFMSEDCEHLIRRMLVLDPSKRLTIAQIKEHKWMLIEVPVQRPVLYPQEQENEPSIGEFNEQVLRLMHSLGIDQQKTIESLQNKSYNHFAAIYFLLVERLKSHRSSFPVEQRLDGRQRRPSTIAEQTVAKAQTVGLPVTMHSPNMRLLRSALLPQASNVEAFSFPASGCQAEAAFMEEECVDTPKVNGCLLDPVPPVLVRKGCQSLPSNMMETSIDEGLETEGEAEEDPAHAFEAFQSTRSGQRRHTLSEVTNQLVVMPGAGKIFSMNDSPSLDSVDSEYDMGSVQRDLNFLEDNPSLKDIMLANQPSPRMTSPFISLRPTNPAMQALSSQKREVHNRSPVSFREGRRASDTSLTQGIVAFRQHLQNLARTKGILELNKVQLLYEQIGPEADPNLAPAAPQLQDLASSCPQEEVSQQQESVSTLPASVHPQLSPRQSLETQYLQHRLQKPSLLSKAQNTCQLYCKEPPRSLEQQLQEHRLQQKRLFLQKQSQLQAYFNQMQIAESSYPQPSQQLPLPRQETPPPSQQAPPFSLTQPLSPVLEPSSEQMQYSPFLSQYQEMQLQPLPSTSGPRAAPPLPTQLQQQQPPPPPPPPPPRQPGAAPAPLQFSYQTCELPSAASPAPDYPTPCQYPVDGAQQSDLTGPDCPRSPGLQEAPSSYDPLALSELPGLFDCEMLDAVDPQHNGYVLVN

As for `COc1ccc(N2C(=O)N(c3c(C)csc3Cl)Cc3cnc(Nc4ccc(C5CCN(C)CC5)cc4OC)nc32)nc1` [AA1, 3-(2-chloro-4-methylthiophen-3-yl)-7-((2-methoxy-4-(1-methylpiperidin-4-yl)phenyl)amino)-l-(5-methoxypyridin-2-yl)-3,4-dihydropyrimido[4,5-d]pyrimidin-2(1H)-one], the half-life at 1 uM in series [1] turned out to be 1.73 h; in series [6] it was 11 h. In series [2], this compound gave a recovery at 5 h, 10 uM of 32%. In addition, the half-life amounted to 0.3 h in series [3] and 0.75 h in series [4]. The “compound detectable in plasma after 24 h” value in series [5] (1 mg/kg iv) and in series [5] (30 mg/kg po) was “detectable after 24 hours” in each case. The compound also yielded a half-inhibitory concentration (IC50) in series [7] of 100 to 200 nM.
